# Experimental data: patent publication US20230091336A1, “CANNABINOID COMPOSITIONS” (priority 2020, published 2023)
# “Also recorded” adds a separate entry of the source.
# Key:
# SOCE in Jurkat T cells = assay: SOCE Fura-2 bioassay in Jurkat cells; format: cell-based, human; details: for effect on SOCE Ca^2+ signals, pure compounds: 10 μM, 1 μM thapsigargin, FIG. 7A, 7C; for IC50: Homo sapiens, read-out: IC50 SOCE, purified cannabinoids, Jurkat, Table 5
# UUO mice = assay: Unilateral Ureteral Obstruction (UUO) mouse model of kidney fibrosis; format: in vivo; details: for interstitial area increase in UUO kidneys: FIG. 19D; for macrophage infiltration in UUO kidneys (F4/80): FIG. 20B; for α-SMA production in UUO kidneys vs vehicle (immunostaining): FIG. 24B; for urine / water intake / body weight / kidney weight CLK / kidney weight UUO: UUO mice at day 7; for urine / water intake / kidney weight CLK / kidney weight UUO: 10 mg/kg i.p. daily; for body weight: 10 mg/kg i.p. daily day 0 to day 6, n = 5; for magnesium output in urine vs vehicle: 24 h urine, FIG. 18; for kidney weight CLK: contralateral kidney; for phosphorylated Smad3 protein in UUO kidneys (Western blotting) / α-SMA protein in UUO kidneys (Western blotting): cortical kidney tissue, FIG. 23; for collagen type I production in UUO kidneys vs vehicle / fibronectin production in UUO kidneys vs vehicle: immunostaining; for collagen type I production in UUO kidneys vs vehicle: FIG. 21B; for fibronectin production in UUO kidneys vs vehicle: FIG. 22B; for tubular dilation in UUO kidneys: number of dilated tubules per field, FIG. 19B; for kidney weight UUO: obstructed kidney; for tubule loss in UUO kidneys: total number of renal tubules per field, FIG. 19C
# Excerpt: The Unilateral Ureteral Obstruction (UUO) model is a mouse model of kidney disease that is associated with and characterized by progressive tubulointerstitial injury and fibrosis. This model can be used to identify many of the molecular and cellular events that occur in progressive kidney fibrosis. […] TRPM7 represents a promising therapeutic target in kidney fibrosis and TRPM7 inhibitors may act as anti-fibrotic pharmacological tools.
# C57BL/6 male mice (6 wks weighing 20-25 g) were used in the UUO model. Under isoflurane (3.0% for induction and 1.5% for maintenance) anesthesia, ureteral obstruction was achieved by ligating the left ureter with a 3-0 silk suture through a left lateral incision. Control and experimental groups for these experiments were created as follows:
# Group 1: Control (5 mL/kg body weight) 5% ethanol and 5% Tween80 in 0.9% NaCl
# Group 2: CBGA (10 mg/kg body weight) 2 mg/mL in 5% ethanol, 5% Tween80 and 0.9% NaCl
# Group 3: CBD (10 mg/kg body weight) 2 mg/mL in 5% ethanol, 5% Tween80 and 0.9% NaCl
# Group 4: CBGA (10 mg/kg body weight)+CBD (10 mg/kg body weight), 2 mg/mL each in 5% ethanol, 5% Tween80 and 0.9% NaCl
# Mice were injected once daily with 10 mg/kg cannabinoids (CBGA, CBD, or both) as well as vehicle control daily beginning immediately after surgery and until Day 6. Mice were euthanized at Day 7 after surgery. Obstructed kidneys (UUO) and non-obstructed contralateral kidneys (CLK) were collected and stored.
# FIGS. 19A-19D depict the protection of kidney structure following cannabinoid treatment, as observed during experiments.
# Immunohistochemical analysis. To evaluate renal fibrosis in UUO kidneys, immunoreactivities of F4/80 (macrophage marker), collagen type I, fibronectin, and α-smooth muscle actin (α-SMA) were determined using a standard biotin-streptavidin-peroxidase method. The staining-positive areas were calculated by Image J. The threshold was set to automatically compute the positive areas for each staining and the ratio of the positive areas to the whole interstitial area. Number of macrophages (FIG. 20A and FIG. 20B), collagen type I production in stained kidney tissue (FIG. 21A and FIG. 21B), and fibronectin production in stained kidney tissue (FIG. 22A and FIG. 22B) were quantified in UUO kidneys, showing that extracellular matrix production and/or deposition in kidney tissue were also affected with CBGA treatment.
# [1] = test system: SOCE in Luva human mast cells; assay: SOCE Fura-2 bioassay in Luva cells; details: Homo sapiens, Mast cell, read-out: IC50 SOCE, purified cannabinoids, Luva; Table 5
# Procedure: (§1) Briefly, SOCE inhibition experiments were performed as described in Example 8, using each of the hemp extracts listed below and in Tables 6A and 6B at six concentrations each in each of the five cell types listed above to obtain dose response curves, as shown in FIGS. 11A-11SS. […] All data are averages of three independent runs±SEM. […] Hemp extracts used in FIGS. 11A-11SS are: Sour Space Candy (SSC), Hawaiian Haze (HH), Special Sauce (SS), Suver Haze (SH), White CBG (WCBG), Elektra (ELEK), Cherry Wine (CW), Lifter (LIF), Grape Soda (GS).
# [2] = test system: SOCE in RBL-2H3 rat mast cells; assay: SOCE Fura-2 bioassay in RBL-2H3 cells; details: Rattus norvegicus, RBL-2H3, read-out: IC50 SOCE, purified cannabinoids, RBL-2H3; Table 5
# Procedure: as §1
Compound,"effect on SOCE Ca^2+ signals, pure compounds (SOCE in Jurkat T cells)",IC50 (SOCE in Jurkat T cells) [nM],interstitial area increase in UUO kidneys (UUO mice),macrophage infiltration in UUO kidneys (F4/80) (UUO mice),α-SMA production in UUO kidneys vs vehicle (immunostaining) (UUO mice),urine (UUO mice) [mL],water intake (UUO mice) [mL],body weight (UUO mice) [g],magnesium output in urine vs vehicle (UUO mice; UUO mice day 7),kidney weight CLK (UUO mice) [mg],phosphorylated Smad3 protein in UUO kidneys (Western blotting) (UUO mice),α-SMA protein in UUO kidneys (Western blotting) (UUO mice),collagen type I production in UUO kidneys vs vehicle (UUO mice),fibronectin production in UUO kidneys vs vehicle (UUO mice),tubular dilation in UUO kidneys (UUO mice),kidney weight UUO (UUO mice),tubule loss in UUO kidneys (UUO mice),IC50 [1] [nM],IC50 [2] [nM],also measured
"C=C(C)[C@@H]1CCC(C)=C[C@H]1c1c(O)cc(CCCCC)cc1O [CBD, (1′R,2′R)-5′-methyl-4-penlyl-2′-(prop-1-en-2-yl)-1′,2′,3′,4′-tetrahydro-[1,1′-biphenyl]-2,6-diol]",low to no effects,7420,inhibited interstitial area increase,strongly inhibited macrophage infiltration,inhibited,2.01 ± 0.44,4.9 ± 0.4,22.08 ± 0.45,recovered,175 ± 0.7,suppressed,suppressed,inhibit,inhibit,inhibited tubular dilation,172 ± 0.8^ mg,inhibited tubule loss,2530,> 50000,"combinatory effect on SOCE inhibition when paired with CBGA (isobolographic analysis) (SOCE in Jurkat T cells; pairs expected to inhibit 50%, FIGS. 10A-10T): Simple additive"
"CCCCCc1cc(O)c(C/C=C(\C)CCC=C(C)C)c(O)c1C(=O)O [CBGA, (E)-3-(3,7-dimethylocta-2,6-dien-1-yl)-2,4-dihydroxy-6-pentylbenzoic acid]",fully block the Ca^2+ signals,530,inhibited increases in interstitial area,inhibited macrophage infiltration,inhibited,1.88 ± 0.17,4.7 ± 0.2,21.55 ± 0.60,recovered,167 ± 0.7,suppressed,suppressed,inhibited,inhibited,inhibited tubular dilation,163 ± 0.9^ mg,inhibited tubule loss,270,5720,"kidney atrophy / loss of UUO kidney weight vs vehicle (UUO mice; UUO mice day 7, 10 mg/kg daily, FIG. 17B, 10 mg/kg): less kidney atrophy; also recorded: ameliorated the loss of kidney weight; recovery of body weight loss vs vehicle (UUO mice; UUO mice, 10 mg/kg daily, FIG. 16): faster recovery of body weight loss"
